# Measured values published in article PMC6814738, “Bacterial MgrB peptide activates chemoreceptor Fpr3 in mouse accessory olfactory system and drives avoidance behaviour” (Nature Communications, 2019).
# Values joined by “and” are separate entries in the source; they are usually repeats but may differ in a detail not shown here. Equal values may be shown once. Peptide text beside a SMILES is read from it. * marks the point of attachment. For = O=C*
# What was measured:
# male mice = test: Behavioural avoidance test, FEU vs. FEU supplemented with peptide (Fig. 8, Supplementary Fig. 4); format: in vivo, mouse; conditions: for avoidance index: mean ± s.e.m.; for Preference (%): group mean value, FEU vs FEU supplemented with 100 µM peptide
# Description: These assays were adapted from behavioural procedures described previously[14],[60]. We tested avoidance by giving adult male mice (8–14 week old) of various genotypes a choice to freely investigate two types of chemical stimuli: FEU vs. FEU supplemented with a peptide. Mice were sexually naïve and not exposed to the test stimuli prior to the testing day. Mice were habituated for three days (40 min each day) to clean filter papers (2.5 cm diameter), each deposited in a sterile plastic culture dish and placed in opposite corners of the test cage (30 × 12 cm). After the third habituation period, the test subject was transferred into a new cage containing fresh filter papers/dishes with either of the two test stimuli. One filter paper was impregnated with 45 µl of fresh urine pooled from two sexually naïve female B6 mice (8–16 weeks old) in oestrus (FEU, female oestrous urine) and 5 µl physiological solution containing (in mM): NaCl, 130; KCl, 5; Na-Hepes, 10; CaCl2, 2; glucose, 10; pH = 7.4. For testing the effects of specific peptides, the second filter paper was impregnated with FEU supplemented with a given peptide (100 or 50 µM final concentration, dissolved in physiological solution). Direct physical contact was allowed. Behaviour was recorded for 10 min from the top of the cage. Mice were exposed only once to a given peptide solution, and were exposed to only one peptide stimulus per day. Stimuli were presented in randomised order. […] This investigative behaviour was quantified as the time spent in close contact with each filter paper, scored manually by an observer blind to the experimental conditions using Behavioural Observation Research Interactive Software (BORIS)[85]. Contact time was measured as the time during which the nose crossed the border of a petri dish containing impregnated filter paper. An avoidance index was calculated as (TP — aTU)/(aTP + aTU), with TP as the time an individual mouse investigated a FEU-peptide mixture, aTP as the average time of all tested mice investigating this stimulus and aTU as the average time of all mice investigating FEU without added peptide. Negative values represent avoidance and positive values represent attraction. For analysing investigation of sick conspecifics, B6 mice were injected either with LPS or PBS as described above. In total, 4 h post injection, these mice were anaesthetised with 165 mg/kg ketamine (Pharmacia GmbH, Berlin, Germany) and 11 mg/kg xylazine (Bayer Health Care, Leverkusen, Germany) and then used in behavioural tests.
# [1] = test system: vomeronasal sensory neurons (VSNs); test: VNO whole-mount en face confocal Ca2+ imaging of VSN dendritic knobs (Fig. 4, 5); format: cell-based, mouse; set-up: key to Ca2+ response of f-MKKFRW-responsive VSN knobs / Fpeak: normalised to knob resting fluorescence F0 before stimulation; conditions: for Fpeak / Ca2+ response of f-MKKFRW-responsive VSN knobs: Fig. 4h; for Fpeak: mean of individual knobs, n = 103 f-MKKFRW, 21 f-MKKFRWVVL, 68 MKKFRW, 26 f-MGFFIS, 63 PUM; for Ca2+ responses in VSNs, in words: VNE of adult B6 mice, f-MKKFRW 1 µM; for Ca2+ response of f-MKKFRW-responsive VSN knobs: adult B6 mice, mean ± s.d., N = 103 (f-MKKFRW), 21 (f-MKKFRWVVL), 68 (MKKFRW), 26 (f-MGFFIS), 63 (PUM)
# Text: Mice (6–20 week old, either sex) were euthanized by CO2 inhalation according to institutional guidelines. After decapitation, the skin was removed from the skull, the mandible was cut off and the cranium was opened by a sagittal cut, 1–2-mm right-lateral in parallel to the midline. The palate and the right incisor were removed and the hemisected skull was mounted in low-melting agarose (4%). The bony capsule of the VNO was opened with fine forceps and the nonsensory epithelium was stripped off. Tissue and cell debris were gently washed off, and the en face preparation was superfused with physiological S1 solution (120 mM NaCl, 25 mM NaHCO3, 5 mM KCl, 1 mM MgSO4, 1 mM CaCl2, 10 mM glucose, 5 mM BES, pH 7.3) saturated with carbogen (95% O2, 5% CO2).
# Loading of the VNE with Rhod-2/AM (5–15 µM, 1 h) was performed in S1 solution under carbogen atmosphere at RT. Images were taken with an upright confocal laser scanning microscope (Leica TCS SP5 II, 20x water immersion objective HCX APO L20x/1.0w) equipped with Ar and He/Ne lasers. GFP was excited at 488 nm, Venus at 514 nm and Rhod-2 at 543 nm. Emission was measured at 490–520 nm (GFP), 520–600 nm (Venus) and 560–680 nm (Rhod-2). To minimise interference between Venus and Rhod-2 fluorescence, images were taken sequentially (sample interval per image, 3–4 s). Peptide stimuli were applied to the VNE surface with a local perfusion system which, when positioned close to the anterior end of the VNO, produced a continuous solution stream from rostral to caudal along the VNO axis. Data analysis was performed with the open source software ImageJ (NIH). Ca^2+ responses of individual dendritic knobs were normalised to the knob resting fluorescence level obtained before stimulation (ratio Fx/F0, Fx = actual fluorescence; F0 = mean fluorescence of 3–5 images before ligand application). Mapping was performed by superimposing Ca^2+ peak images onto images showing intrinsic fluorescence for specific markers.
# Predator urine mix was composed of urine from mountain lion, coyote, bobcat, fox and marten (at equal volume ratios), purchased from Predatorpee (USA) and Kieferle (Germany). The fMet peptides were as described above. Stimuli were applied in S2 solution (140 mM NaCl, 5 mM KCl, 10 mM HEPES, 1 mM CaCl2, 1 mM MgCl2, 10 mM glucose, pH 7.3 with NaOH).
# [2] = 100 µM, B6 mice (f-MKKFRW also ΔFpr3-lacZ+/+, cGαo+/−, Trpc2+/−)
# [3] = B6, 100 µM in FEU, n = 10-11, negative = avoidance
# [4] = Fig. 8c, individual values, B6 mice
# [5] = Fig. 8c, mean, B6 mice, n = 11 f-MKKFRW, 11 MKKFRW, 10 f-MGFFIS, 10 f-MEQQNK, FEU control -0.002
compound,measurement,setting,value
f-MGFFIS [bacterial signal peptide fragment],"avoidance, in words",male mice; [2],failed to elicit avoidance
same,avoidance index,male mice; [3],0.13 ± 0.09
same,Preference Index,male mice; [4],-0.07414 and 0.6081 and -0.2699 and 0.01401 and 0.4619 and -0.1746 and 0.304 and 0.1043 and 0.0419 and 0.2857
same,Preference Index,male mice; [5],0.13
same,Fpeak,[1],0.00
same,"Ca2+ responses in VSNs, in words",[1],failed to evoke Ca^2+ responses in VSNs
same,Ca2+ response of f-MKKFRW-responsive VSN knobs,[1],0.00 ± 0.00
CSCC[C@H](NC=O)C(=O)N[C@@H](CCCCN)C(=O)N[C@@H](CCCCN)C(=O)N[C@@H](Cc1ccccc1)C(=O)N[C@@H](CCCNC(=N)N)C(=O)N[C@@H](Cc1c[nH]c2ccccc12)C(=O)O [f-MKKFRW] (For-MKKFRW-OH),"avoidance, in words","male mice; 50 µM, B6 mice",mice were still capable of displaying avoidance
same,"avoidance, in words",male mice; [2],robust avoidance
same,"avoidance, in words","male mice; 100 µM, ΔFpr3-lacZ −/−, cGαo −/− and Trpc2 −/− mice",absent
same,avoidance index,"male mice; B6, 50 µM in FEU, N = 9, Supplementary Fig. 4d",-0.34 ± 0.06
same,avoidance index,male mice; [3],−0.34 ± 0.03
same,Preference Index,male mice; [4],-0.2596 and -0.3493 and -0.4593 and -0.377 (2×) and -0.1335 and -0.375 and -0.3656 and -0.2037 and -0.2877 and -0.531
same,Preference Index,male mice; [5],-0.34
same,Preference Index,"male mice; Fig. 8e, individual values, cGao +/-",-0.2157 and -0.2715 and -0.2275 and -0.592 and -0.6063 and -0.5538 and -0.3716 and -0.4364 and -0.4748 and -0.4802 and -0.5951 and -0.504 and -0.5805
same,Preference Index,"male mice; Fig. 8e, individual values, cGao -/-",0.466 and 0.06846 and 0.3027 and 0.3207 and 0.1056 and -0.3803 and 0.00671 and 0.2965 and 0.7963 and 0.4351 and -0.3658 and -0.3561 and -0.3465
same,Preference Index,"male mice; Fig. 8e, mean, cGao +/-, n = 13 f-MKKFRW, 12 MKKFRW, FEU control -0.0358",-0.45
same,Preference Index,"male mice; Fig. 8e, mean, cGao -/-, n = 13, FEU control 0.15",0.10
same,Preference Index,"male mice; Fig. 8f, individual values, Trpc2 +/-",-0.1378 and -0.4957 and -0.5951 and -0.4313 and -0.5692 and -0.4357 and -0.03894 and -0.2863 and -0.157 and -0.6487 and -0.5152 and -0.5504
same,Preference Index,"male mice; Fig. 8f, individual values, Trpc2 -/-",-0.1066 and -0.3083 and -0.1978 and -0.152 and 0.6895 and 0.2354 and -0.08494 and 0.4331 and -0.3499 and -0.2993 and -0.07691
same,Preference Index,"male mice; Fig. 8f, mean, Trpc2 +/-, n = 12 f-MKKFRW, 9 MKKFRW, FEU control -0.0531",-0.41
same,Preference Index,"male mice; Fig. 8f, mean, Trpc2 -/-, n = 11 f-MKKFRW, 8 MKKFRW, FEU control -0.10",-0.02
same,Preference (%),"male mice; Fig. 8g, ∆Fpr3-lacZ +/+ males, FEU/FEU control -5.85844",-25.7155%
same,Preference (%),"male mice; Fig. 8g, ∆Fpr3-lacZ -/- males, FEU/FEU control 2.58474",9.5733%
same,Preference (%),"male mice; Fig. 8h, Trpc2 +/- males, FEU/FEU control 0.100694",-20.0023%
same,Preference (%),"male mice; Fig. 8h, Trpc2 -/- males, FEU/FEU control -3.21189",-1.896%
same,Preference Index,"male mice; Fig. 8d, individual values, ∆Fpr3-lacZ +/+",-0.634 and -0.7071 and -0.2684 and -0.569 and -0.6199 and -0.495 and -0.4793 and -0.629 and -0.5062
same,Preference Index,"male mice; Fig. 8d, individual values, ∆Fpr3-lacZ -/-",-0.00973 and -0.216 and 0.248 and 0.6807 and 0.8928 and 0.2328 and 0.2493 and -0.01291 and 0.00975 and -0.2244 and 0.2479 and 0.4981
same,Preference Index,"male mice; Fig. 8d, mean, ∆Fpr3-lacZ +/+, n = 9 f-MKKFRW, 6 MKKFRW, FEU control -0.06",-0.55
same,Preference Index,"male mice; Fig. 8d, mean, ∆Fpr3-lacZ -/-, n = 12, FEU control 0.19",0.22
same,avoidance index,"male mice; Trpc2 +/−, 100 µM in FEU",−0.41 ± 0.06
same,avoidance index,"male mice; Trpc2 −/−, 100 µM in FEU",−0.02 ± 0.10
same,avoidance index,"male mice; cGαo +/−, 100 µM in FEU",−0.45 ± 0.04
same,avoidance index,"male mice; cGαo −/−, 100 µM in FEU, n = 13",0.10 ± 0.11
same,avoidance index,"male mice; ∆Fpr3-lacZ +/+, 100 µM in FEU",−0.55 ± 0.04
same,avoidance index,"male mice; ∆Fpr3-lacZ −/−, 50 µM in FEU, N = 5, Supplementary Fig. 4d",0.005 ± 0.08
same,avoidance index,"male mice; ∆Fpr3-lacZ −/−, 100 µM in FEU, n = 12",0.22 ± 0.10
same,fraction of knobs responding,"[1]; 1 µM, VNE, B6 mice",~ 0.15%
same,"Ca2+ responses in Venus+ (B2m) vs GFP+ (NP2) knobs, in words","[1]; 1 µM, heterozygous NP2∆ or B2m-Venus mice, Fig. 5g, h",Responses occurred in Venus+ but not in GFP+ knobs
same,Fpeak,[1],0.71
same,"Ca2+ responses in VSNs, in words",[1],"robust, transient Ca^2+ elevations in a small subset of VSNs"
same,Ca2+ response of f-MKKFRW-responsive VSN knobs,[1],0.71 ± 0.44
same,detection threshold for evoked Ca2+ responses in VSNs,"[1]; native VSNs of adult B6 mice, Rhod-2/AM, Fig. 4f",≤ 0.1 µM
